Test results published in US20150087627A1, “COMBINATION OF KINASE INHIBITORS AND USES THEREOF” (Intellikine LLC, priority 2011, published 2015).
Where a name gives a salt, the structure may show the parent alone. Read-outs that look alike come from different tables or passages of the source. *1 amine or outer side, *2 acyl side, *3 side chain or, on linkers, in order; H or OH if unused. Where a SMILES comes first, the peptide text is derived from it. Bridges are numbered along the chain shown (N, C = ends). Roman numbers before positions name the chains, in order. [ ]: non-standard residue; d: D form. Actinocin(9to1) = Cc1c2oc3c(C)ccc(C(=O)[*:1])c3nc-2c(C(=O)[*:2])c(N)c1=O; NMeV = CN[C@H](C(=O)O)C(C)C; Sar = CNCC(=O)O

Legend:
[1] = clinical use of the marketed drug; cited from earlier work
[2] = target: T1, mTOR (Homo sapiens, UniProt P42345); assay: mTOR kinase inhibition assay (radiometric or LanthaScreen TR-FRET); assay type: biochemical; settings: read-out: mTORC IC50
T1 construct: purchased Invitrogen
T1 sequence (P42345 1360-2549 limits assumed): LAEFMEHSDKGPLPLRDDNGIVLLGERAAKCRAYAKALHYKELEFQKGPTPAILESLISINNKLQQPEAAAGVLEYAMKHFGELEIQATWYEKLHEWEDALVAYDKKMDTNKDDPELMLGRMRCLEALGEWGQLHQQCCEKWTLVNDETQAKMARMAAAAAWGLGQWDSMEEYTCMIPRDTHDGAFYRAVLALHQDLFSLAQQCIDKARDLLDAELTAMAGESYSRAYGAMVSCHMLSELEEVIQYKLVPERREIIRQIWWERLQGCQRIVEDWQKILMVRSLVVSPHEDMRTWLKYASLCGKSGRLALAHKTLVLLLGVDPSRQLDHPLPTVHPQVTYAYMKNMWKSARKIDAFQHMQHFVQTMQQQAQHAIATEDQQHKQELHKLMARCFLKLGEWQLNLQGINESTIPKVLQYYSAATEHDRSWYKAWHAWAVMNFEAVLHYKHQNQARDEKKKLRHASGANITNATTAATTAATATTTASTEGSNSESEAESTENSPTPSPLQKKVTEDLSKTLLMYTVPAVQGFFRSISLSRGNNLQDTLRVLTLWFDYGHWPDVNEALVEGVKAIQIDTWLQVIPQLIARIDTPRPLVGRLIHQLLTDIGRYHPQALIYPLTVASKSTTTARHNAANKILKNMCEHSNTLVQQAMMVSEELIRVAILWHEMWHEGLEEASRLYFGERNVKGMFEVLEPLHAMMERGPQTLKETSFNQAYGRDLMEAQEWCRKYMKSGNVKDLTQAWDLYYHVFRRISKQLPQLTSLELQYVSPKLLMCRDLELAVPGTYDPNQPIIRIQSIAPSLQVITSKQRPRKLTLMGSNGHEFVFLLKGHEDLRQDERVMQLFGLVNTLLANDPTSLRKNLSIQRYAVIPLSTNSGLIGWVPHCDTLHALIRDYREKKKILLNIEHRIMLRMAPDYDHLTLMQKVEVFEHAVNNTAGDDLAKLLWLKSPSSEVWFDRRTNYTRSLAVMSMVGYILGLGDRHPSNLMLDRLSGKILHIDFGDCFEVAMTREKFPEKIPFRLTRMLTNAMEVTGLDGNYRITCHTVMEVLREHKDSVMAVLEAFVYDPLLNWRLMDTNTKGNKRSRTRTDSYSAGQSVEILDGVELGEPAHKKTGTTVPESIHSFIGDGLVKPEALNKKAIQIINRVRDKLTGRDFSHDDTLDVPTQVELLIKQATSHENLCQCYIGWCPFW
Method: The cross-activity or lack thereof of one or more compounds of the present invention against mTor can be measured according to any procedures known in the art or methods disclosed below.
The compounds described herein can be tested against recombinant mTOR (Invitrogen) in an assay containing 50 mM HEPES, pH 7.5, 1 mM EGTA, 10 mM MgCl2, 2.5 mM, 0.01% Tween, 10 μM ATP (2.5 μCi of μ-32P-ATP), and 3 μg/mL BSA. Rat recombinant PHAS-1/4EBP1 (Calbiochem; 2 mg/mL) is used as a substrate. Reactions are terminated by spotting onto nitrocellulose, which is washed with 1M NaCl/1% phosphoric acid (approximately 6 times, 5-10 minutes each). Sheets are dried and the transferred radioactivity quantitated by phosphorimaging.
For instance, one can use Invitrogen's LanthaScreen™ Kinase assay to test the inhibitors of mTOR disclosed herein. This assay is a time resolved FRET platform that measures the phosphorylation of GFP labeled 4EBP1 by mTOR kinase. The kinase reaction is performed in a white 384 well microtiter plate. The total reaction volume is 20 ul per well and the reaction buffer composition is 50 mM HEPES pH7.5, 0.01% Polysorbate 20, 1 mM EGTA, 10 mM MnCl2, and 2 mM DTT. In the first step, each well receives 2 ul of test compound in 20% dimethylsulphoxide resulting in a 2% DMSO final concentration. […] The plate is sealed and incubated for 1 hour at room temperature. […] The plate is sealed, incubated for 1 hour at room temperature, and then read on a plate reader set up for LanthaScreen™ TR-FRET. Data is analyzed and IC50s are generated using GraphPad Prism 5.

[3] = target: T2, PI3K α (p110α/p85α) (Homo sapiens, UniProt P42336); assay: PI 3-Kinase (human) HTRF assay, PI3K α; assay type: biochemical; settings: read-out: PI3K α IC50
T2 construct: purchased Upstate / Millipore Corporation
T2 sequence (P42336 whole entry): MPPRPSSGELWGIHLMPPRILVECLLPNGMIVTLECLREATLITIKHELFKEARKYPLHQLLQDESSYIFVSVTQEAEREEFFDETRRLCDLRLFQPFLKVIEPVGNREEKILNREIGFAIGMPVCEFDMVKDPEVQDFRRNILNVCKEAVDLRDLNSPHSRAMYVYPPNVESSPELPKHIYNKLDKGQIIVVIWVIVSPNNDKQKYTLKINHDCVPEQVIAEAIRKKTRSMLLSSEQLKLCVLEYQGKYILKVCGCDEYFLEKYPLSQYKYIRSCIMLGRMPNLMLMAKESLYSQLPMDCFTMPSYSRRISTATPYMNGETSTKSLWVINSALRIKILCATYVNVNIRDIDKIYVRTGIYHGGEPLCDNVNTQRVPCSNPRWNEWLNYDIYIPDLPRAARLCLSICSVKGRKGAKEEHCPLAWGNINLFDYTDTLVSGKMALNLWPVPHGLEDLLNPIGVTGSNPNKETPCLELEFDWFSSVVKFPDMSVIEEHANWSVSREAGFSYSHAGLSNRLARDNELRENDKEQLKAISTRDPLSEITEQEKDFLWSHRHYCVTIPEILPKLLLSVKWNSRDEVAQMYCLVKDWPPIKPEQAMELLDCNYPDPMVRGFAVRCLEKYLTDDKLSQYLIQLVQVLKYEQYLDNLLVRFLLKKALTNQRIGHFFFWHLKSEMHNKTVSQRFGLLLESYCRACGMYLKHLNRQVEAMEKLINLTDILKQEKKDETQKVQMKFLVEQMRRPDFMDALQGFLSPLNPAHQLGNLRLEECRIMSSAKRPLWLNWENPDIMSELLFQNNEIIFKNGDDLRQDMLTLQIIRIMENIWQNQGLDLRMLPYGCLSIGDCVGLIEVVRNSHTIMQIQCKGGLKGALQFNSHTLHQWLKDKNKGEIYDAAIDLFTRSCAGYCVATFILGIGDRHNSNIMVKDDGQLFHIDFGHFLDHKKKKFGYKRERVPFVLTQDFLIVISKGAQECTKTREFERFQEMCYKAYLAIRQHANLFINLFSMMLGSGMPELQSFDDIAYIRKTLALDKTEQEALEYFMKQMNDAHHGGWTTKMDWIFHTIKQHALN
T2 sequence (P27986 whole entry partner): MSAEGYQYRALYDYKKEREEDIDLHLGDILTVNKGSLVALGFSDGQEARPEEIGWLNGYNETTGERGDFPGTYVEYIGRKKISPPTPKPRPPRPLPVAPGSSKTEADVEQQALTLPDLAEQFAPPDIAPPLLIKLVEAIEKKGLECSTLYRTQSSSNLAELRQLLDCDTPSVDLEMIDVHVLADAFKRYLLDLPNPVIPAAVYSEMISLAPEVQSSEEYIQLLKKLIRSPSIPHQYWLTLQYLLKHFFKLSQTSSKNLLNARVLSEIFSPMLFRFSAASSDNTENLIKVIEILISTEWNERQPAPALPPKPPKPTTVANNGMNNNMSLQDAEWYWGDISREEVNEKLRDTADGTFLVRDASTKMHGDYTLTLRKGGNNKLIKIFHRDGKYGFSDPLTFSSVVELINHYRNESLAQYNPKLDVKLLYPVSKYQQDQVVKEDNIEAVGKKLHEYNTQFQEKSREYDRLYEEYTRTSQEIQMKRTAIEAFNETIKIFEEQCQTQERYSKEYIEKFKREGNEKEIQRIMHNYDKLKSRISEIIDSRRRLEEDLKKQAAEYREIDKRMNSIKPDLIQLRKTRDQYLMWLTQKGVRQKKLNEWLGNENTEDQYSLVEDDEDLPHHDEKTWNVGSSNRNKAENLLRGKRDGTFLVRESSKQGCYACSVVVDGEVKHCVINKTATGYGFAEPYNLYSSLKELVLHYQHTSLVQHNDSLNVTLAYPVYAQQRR

[4] = target: T3, PI3K β (p110β/p85α) (Homo sapiens, UniProt P42338); assay: PI 3-Kinase (human) HTRF assay, PI3K β; assay type: biochemical; settings: read-out: PI3K β IC50
T3 construct: purchased Upstate / Millipore Corporation
Method: (§1) Briefly, the assay is a time resolved FRET assay that indirectly measures PIP3 product formed by the activity of a PI3-K. The kinase reaction is performed in a microtiter plate (e.g., a 384 well microtiter plate). The total reaction volume is approximately 20 ul per well. In the first step, each well receives 2 ul of test compound in 20% dimethylsulphoxide resulting in a 2% DMSO final concentration. […] The plate is sealed and incubated for 15 minutes at room temperature. […] The plate is sealed and incubated for 1 hour at room temperature. The reaction is stopped by adding 5 ul of Stop Solution per well and then 5 ul of Detection Mix is added per well. The plate is sealed, incubated for 1 hour at room temperature, and then read on an appropriate plate reader. Data is analyzed and IC50s are generated using GraphPad Prism 5.

[5] = target: T4, PI3K γ (p110γ) (Homo sapiens, UniProt P48736); assay: PI 3-Kinase (human) HTRF assay, PI3K γ; assay type: biochemical; settings: read-out: PI3K γ IC50
T4 construct: purchased Upstate / Millipore Corporation
T4 sequence (P48736 whole entry): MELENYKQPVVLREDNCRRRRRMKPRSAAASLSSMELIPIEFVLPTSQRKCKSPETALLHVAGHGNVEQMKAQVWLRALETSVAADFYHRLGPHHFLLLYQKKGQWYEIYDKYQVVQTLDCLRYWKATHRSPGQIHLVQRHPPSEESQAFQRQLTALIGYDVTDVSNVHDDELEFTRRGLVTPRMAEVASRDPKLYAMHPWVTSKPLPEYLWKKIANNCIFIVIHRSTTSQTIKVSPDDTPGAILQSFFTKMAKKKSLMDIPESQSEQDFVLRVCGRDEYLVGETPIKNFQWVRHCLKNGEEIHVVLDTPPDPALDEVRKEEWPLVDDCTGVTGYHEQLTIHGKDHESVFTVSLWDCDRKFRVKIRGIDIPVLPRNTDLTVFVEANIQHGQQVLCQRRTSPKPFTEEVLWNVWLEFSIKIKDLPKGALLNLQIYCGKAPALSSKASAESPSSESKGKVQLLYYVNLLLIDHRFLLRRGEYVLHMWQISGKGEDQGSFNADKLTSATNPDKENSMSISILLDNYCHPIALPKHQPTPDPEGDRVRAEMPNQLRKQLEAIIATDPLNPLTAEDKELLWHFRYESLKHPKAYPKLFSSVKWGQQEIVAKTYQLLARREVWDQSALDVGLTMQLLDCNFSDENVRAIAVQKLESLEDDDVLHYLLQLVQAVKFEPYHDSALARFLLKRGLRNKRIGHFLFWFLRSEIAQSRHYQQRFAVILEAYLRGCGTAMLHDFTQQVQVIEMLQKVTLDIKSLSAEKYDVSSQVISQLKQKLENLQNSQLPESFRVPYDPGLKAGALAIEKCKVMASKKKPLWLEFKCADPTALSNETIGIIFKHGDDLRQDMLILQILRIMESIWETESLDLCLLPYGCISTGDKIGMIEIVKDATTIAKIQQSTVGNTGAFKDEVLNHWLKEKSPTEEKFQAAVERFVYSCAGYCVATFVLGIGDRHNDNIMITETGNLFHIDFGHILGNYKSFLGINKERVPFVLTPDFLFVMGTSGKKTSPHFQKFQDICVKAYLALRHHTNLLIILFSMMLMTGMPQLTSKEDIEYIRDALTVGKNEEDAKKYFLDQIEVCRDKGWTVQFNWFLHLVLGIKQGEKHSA
Method: as §1

[6] = target: T5, PI3K δ (Homo sapiens, UniProt O00329); assay: PI 3-Kinase (human) HTRF assay, PI3K δ; assay type: biochemical; settings: read-out: PI3K δ IC50
T5 construct: purchased Upstate / Millipore Corporation

SMILES | dose limiting or most common side effect [1] | IC50 [2] [nM] | IC50 [3] [nM] | IC50 [4] [nM] | IC50 [5] [nM] | IC50 [6] [nM] | also measured
O=C(O)CCCc1ccc(N(CCCl)CCCl)cc1 [chlorambucil] | Bone marrow suppression | – | – | – | – | – | –
COc1cccc2c1C(=O)c1c(O)c3c(c(O)c1C2=O)C[C@@](O)(C(C)=O)C[C@@H]3O[C@H]1C[C@H](N)[C@H](O)[C@H](C)O1 [daunorubicin, (8S-cis-)-8-acetyl-10-[(3-amino-2,3,6-trideoxy-α-L-lyxo-hexopyranosyl)oxy]-7,8,9,10-tetrahydro-6,8,11-trihydroxy-1-methoxy-5,12 naphthacenedione hydrochloride] | Myelosuppression | – | – | – | – | – | –
Nc1ccn([C@@H]2O[C@H](CO)[C@@H](O)C2(F)F)c(=O)n1 [gemcitabine, 2′-deoxy-2′,2′-difluorocytidine monohydrochloride (β-isomer)] | Myelosuppression, including leucopenia, thrombocytopenia, and anemia | – | – | – | – | – | –
N.N.O=C([O-])C1(C(=O)[O-])CCC1.[Pt+2] [carboplatin, platinum, diamine [1,1-cyclobutane-dicarboxylate(2-)-O,O′]] | Bone marrow suppression | – | – | – | – | – | –
O.Sc1ncnc2nc[nH]c12 [mercaptopurine, 1,7-dihydro-6H-purine-6-thione monohydrate] | Myelosuppression and gastrointestinal mucositis | – | – | – | – | – | –
CC[C@]1(O)C[C@H]2CN(CCc3c([nH]c4ccccc34)[C@@](C(=O)OC)(c3cc4c(cc3OC)N(C=O)[C@H]3[C@@](O)(C(=O)OC)[C@H](OC(C)=O)[C@]5(CC)C=CCN6CC[C@]43[C@@H]65)C2)C1 [vincristine, vincaleukoblastine, 22-oxo-, sulfate] | Alopecia and neurologic effects | – | – | – | – | – | –
CN(Cc1cnc2nc(N)nc(N)c2n1)c1ccc(C(=O)N[C@@H](CCC(=O)O)C(=O)O)cc1 [methotrexate] | Myelosuppression (leucopenia, thrombocytopenia, and anemia) and mucositis | – | – | – | – | – | –
CCC1=C[C@@H]2CN(C1)Cc1c([nH]c3ccccc13)[C@@](C(=O)OC)(c1cc3c(cc1OC)N(C)[C@H]1[C@@](O)(C(=O)OC)[C@H](OC(C)=O)[C@]4(CC)C=CCN5CC[C@]31[C@@H]54)C2 (relative stereo) [vinorelbine, 3′,4′-didehydro-4′-deoxy-C′-norvincaleukoblastine [R—(R*,R*)-2,3-dihydroxybutanedioate (1:2)(salt)]] | Myelosuppression | – | – | – | – | – | –
CCc1c2c(nc3ccc(OC(=O)N4CCC(N5CCCCC5)CC4)cc13)-c1cc3c(c(=O)n1C2)COC(=O)[C@]3(O)CC [irinotecan HCl, (4S)-4,11-diethyl-4-hydroxy-9-[(4-piperidinopiperidino)carbonyloxy]-1H-pyrano[3′,4′,6,7]indolizino[1,2-b]quinoline-3,14(4H,12H)-dione hydrochloride] | myelosuppression, including neutropenia, and GI effects, including diarrhea | – | – | – | – | – | –
CC(=O)O[C@@]12CO[C@@H]1C[C@H](O)[C@@]1(C)C(=O)[C@H](O)C3=C(C)[C@@H](OC(=O)[C@H](O)[C@@H](NC(=O)OC(C)(C)C)c4ccccc4)C[C@@](O)([C@@H](OC(=O)c4ccccc4)[C@H]21)C3(C)C [docetaxel, (2R,3S)—N-carboxy-3-phenylisoserine, N-tert-butyl ester, 13-ester with 5β-20-epoxy-1,2α,4,7β,10β,13α-hexahydroxytax-1-1-en-9-one 4-acetate 2-benzoate, trihydrate] | neutropenia | – | – | – | – | – | –
CN(C)N=Nc1[nH]cnc1C(N)=O [dacarbazine, 5-(3,3-dimethyl-1-triazeno)-imidazole-4-carboxamide] | Nausea, vomiting, and anorexia | – | – | – | – | – | –
CC[C@@]1(O)C(=O)OCc2c1cc1n(c2=O)Cc2cc3c(CN(C)C)c(O)ccc3nc2-1 [topotecan HCl, (S)-10-[(dimethylamino)methyl]-4-ethyl-4,9-dihydroxy-1H-pyrano[3′,4′,6,7]-indolizino[1,2-b]quinoline-3,14-(4H,12H)-dione monohydrochloride] | myelosuppression, primarily neutropenia | – | – | – | – | – | –
Nc1nc2nc[nH]c2c(=S)[nH]1 [thioguanine, 2-amino-1,7-dihydro-6H-purine-6-thione] | Myelosuppression, including leucopenia, thrombocytopenia, and anemia | – | – | – | – | – | –
N.N.[Cl][Pt][Cl] [cisplatin, cis-diamminedichloroplatinum] | nephrotoxicity, which may be controlled by hydration and diuresis, and ototoxicity | – | – | – | – | – | –
O.O=P1(N(CCCl)CCCl)NCCCO1 (stereo not drawn) [cyclophosphamide, 2-[bis(2-chloroethyl)amino]tetrahydro-2H-1,3,2-oxazaphosphorine 2-oxide monohydrate] | Alopecia, nausea, vomiting and leukopenia | – | – | – | – | – | –
COc1cccc2c1C(=O)c1c(O)c3c(c(O)c1C2=O)C[C@@](O)(C(=O)CO)C[C@@H]3O[C@H]1C[C@H](N)[C@H](O)[C@H](C)O1.Cl [doxorubicin, (8S,10S)-10-[(3-amino-2,3,6-trideoxy-α-L-lyxo-hexopyranosyl)oxy]-8-glycoloyl, 7,8,9,10-tetrahydro-6,8,11-trihydroxy-1-methoxy-5,12 naphthacenedione hydrochloride] | Myelosuppression | – | – | – | – | – | –
O=c1[nH]cc(F)c(=O)[nH]1 [5-fluorouracil, 5-fluoro-2,4-(1H,3H) pyrimidinedione] | Myelosuppression and mucositis | – | – | – | – | – | –

SMILES | dose limiting or most common side effect [1] | IC50 [2] [nM] | IC50 [3] [nM] | IC50 [4] [nM] | IC50 [5] [nM] | IC50 [6] [nM] | also measured
CN1CCN(C(=O)C2CN(c3cnc4ccc(-c5ccc6oc(N)nc6c5)cc4n3)C2)CC1 [Compound 170] | – | < 10000 | < 100 | < 1000 | < 10000 | < 1000 | –
Nc1nc2cc(-c3ccc4ncc(N5CCN(C(=O)C6(N)CC6)CC5)nc4n3)ccc2o1 [Compound 592] | – | – | – | – | – | – | IC50 ([2]; Table 4 (PI3K α inhibitors)): < 10000 nM; IC50 ([3]; Table 4 (PI3K α inhibitors)): < 100 nM; IC50 ([4]; Table 4 (PI3K α inhibitors)): < 10000 nM; IC50 ([5]; Table 4 (PI3K α inhibitors)): < 100 nM; IC50 ([6]; Table 4 (PI3K α inhibitors)): < 10000 nM
N[C@@H](Cc1ccc(N(CCCl)CCCl)cc1)C(=O)O [melphalan, 4-[bis(2-chloroethyl)amino]-L-phenylalanine] | Bone marrow suppression | – | – | – | – | – | –
Cc1c2oc3c(C)ccc(C(=O)N[C@@H]4C(=O)N[C@H](C(C)C)C(=O)N5CCC[C@H]5C(=O)N(C)CC(=O)N(C)[C@@H](C(C)C)C(=O)O[C@@H]4C)c3nc-2c(C(=O)N[C@@H]2C(=O)N[C@H](C(C)C)C(=O)N3CCC[C@H]3C(=O)N(C)CC(=O)N(C)[C@@H](C(C)C)C(=O)O[C@@H]2C)c(N)c1=O [dactinomycin] (I: T[dV]P[Sar][NMeV] / II: T[dV]P[Sar][NMeV]; ester I:1-I:C, II:1-II:C; linker I:N-II:N via Actinocin(9to1)) | Nausea, vomiting, and anorexia | – | – | – | – | – | –
CS(=O)(=O)OCCCCOS(C)(=O)=O [busulfan, 1,4-butanediol dimethanesulfonate] | Bone marrow suppression | – | – | – | – | – | –
CC(C)N1CCN(C2CN(c3cnc4ccc(-c5ccc6oc(N)nc6c5)cc4n3)C2)CC1 [Compound 331] | – | > 10000 | < 100 | < 10000 | < 10000 | < 10000 | –
COc1cc([C@@H]2c3cc4c(cc3[C@@H](O[C@@H]3O[C@@H]5CO[C@@H](c6cccs6)O[C@H]5[C@H](O)[C@H]3O)[C@H]3COC(=O)[C@H]23)OCO4)cc(OC)c1O [teniposide, 4′-demethyl-epipodophyllotoxin 9[4,6-0-(R)-thenylidene-β-D-glucopyranoside]] | Myelosuppression | – | – | – | – | – | –
Nc1nc2cc(-c3ccc4ncc(N5CC(N6CCNCC6)C5)nc4c3)ccc2o1 [Compound 326] | – | > 10000 | < 100 | < 1000 | < 1000 | < 1000 | –
Nc1nc2cc(-c3ccc4ncc(=O)[nH]c4c3)ccc2o1 [Compound 72] | – | < 1000 | < 100 | < 1000 | < 100 | > 10000 | –
Nc1nc2cc(-c3ccc4ncc(N5CCN(C(=O)[C@@H](N)CO)CC5)nc4c3)ccc2o1 [Compound 298] | – | < 10000 | < 100 | < 1000 | < 10000 | < 10000 | –
CN1CCN(c2cnc3ccc(-c4ccc5oc(N)nc5c4)cc3n2)CC1=O [Compound 277] | – | < 10000 | < 100 | < 1000 | < 1000 | < 10000 | –
Nc1nc2cc(-c3ccc4ncc(N5CC(N6CCN(CCO)CC6)C5)nc4c3)ccc2o1 [Compound 333] | – | > 10000 | < 100 | < 10000 | < 10000 | < 1000 | –
Nc1nc2cc(-c3ccc4ncc(N5CC(N6CCOCC6)C5)nc4c3)c(F)cc2o1 [Compound 373] | – | > 10000 | < 100 | < 10000 | < 10000 | < 10000 | –
CS(=O)(=O)N1CCN(C2CCN(c3cnc4ccc(-c5ccc6oc(N)nc6c5)cc4n3)CC2)CC1 [Compound 377] | – | < 10000 | < 100 | < 10000 | < 1000 | < 10000 | –
Nc1nc2cc(-c3ccc4ncc(N5CCC(n6ccnc6)CC5)nc4c3)ccc2o1 [Compound 345] | – | < 10000 | < 100 | < 1000 | < 1000 | < 1000 | –
Nc1nc2cc(-c3ccc4ncc(N5CC(C(=O)N6CCN(C7CC7)CC6)C5)nc4c3)ccc2o1 [Compound 276] | – | < 10000 | < 100 | < 10000 | < 1000 | < 1000 | –
